In brackets after ≈: the same amount, converted by molar mass. Like-named read-outs stand apart in the source and are kept apart here.
How the values were obtained:
Assay in all cases: MIC, NCCLS broth microdilution
[1] = system: E. Coli ATCC 25922; assay type: cell-based; details: Escherichia coli, ATCC25922, Table 1
Procedure: (§1) Antibacterial activity of the novel Formula 1 and Formula 2 compounds and their pharmaceutically acceptable addition salts with organic and inorganic acids was determined against a series of microorganisms from the American Type Culture Collection (ATCC) and clinical Streptococcus sp isolates. The ATCC strains included: Staphylococcus aureus, Enterococcus faecium, Klebsiella pneumoniae, Escherichia coli, Salmonella typhimurium, Streptococcus pneumoniae, Streptococcus pyogenes, and Haemophilus influenzae. The clinical strains included macrolide resistant Streptococcus sp. with either Erm or MefA resistance mechanisms. The clinical isolates were identified using the API biochemical identification system (BioMerieux).
(§2) Antimicrobial susceptibility testing was performed according to recommendations by the National Committee for Clinical Laboratory Standards (NCCLS M100-S12, M7-A5). Briefly, two fold dilutions of compounds were made in microtiter plates. Each well of the microtiter plate was inoculated with test microorganisms at a final density 5×10^5 colony forming units (cfu)/mL. The microtiter plates were incubated at 35° C. under aerobic conditions, except for H. influenzae and S. pyogenes which were incubated at 5% CO2. The minimal inhibitory concentration (MIC) was defined as the lowest concentration of compound that inhibited growth. The results of represented examples of this invention on standard test microorganisms and clinical isolates in comparison with azithromycin and telithromycin are shown in Table 1 and Table 2.

[2] = system: S. aureus MRSA 33591; assay type: cell-based; details: Staphylococcus aureus, Table 1
Procedure: as §1, §2

[3] = system: E. faecium ATCC 19434; assay type: cell-based; details: Enterococcus faecium, ATCC19434, Table 1
Procedure: as §1, §2

[4] = system: S. pyogenes ATCC 19615; assay type: cell-based; details: Streptococcus pyogenes, ATCC19615, 5% CO2, Table 1
Procedure: as §1, §2

[5] = system: S. aureus ATCC 29213 (MSSA) MLS-S; assay type: cell-based; details: Staphylococcus aureus, Table 1
Procedure: as §1, §2

[6] = system: K. Pneumonia 13883; assay type: cell-based; details: Klebsiella pneumoniae, Table 1
Procedure: as §1, §2

[7] = system: S. pneumoniae 303(ErmB); assay type: cell-based, Streptococcus pneumoniae
Procedure: as §1, §2

[8] = system: S. pneumoniae 163(MefA); assay type: cell-based, Streptococcus pneumoniae
Procedure: as §1, §2

[9] = system: S. pneumoniae ATCC 49619; assay type: cell-based, Streptococcus pneumoniae
Procedure: as §1, §2

[10] = system: H. influenzae ATCC 49247; assay type: cell-based, Haemophilus influenzae; details: 5% CO2
Procedure: as §1, §2

[11] = system: S. Typhimurium ATCC 14028; assay type: cell-based; details: Salmonella enterica, Table 1
Procedure: as §1
as §2, with “growth.” for “growth. The results of represented examples of this invention on standard test microorganisms and clinical isolates in comparison with azithromycin and telithromycin are shown in Table 1 and Table 2.”

[12] = system: S. pyogenes 3029; assay type: cell-based; details: Streptococcus pyogenes, Table 2
Procedure: as §1, §2

[13] = system: S. pyogenes 1850; assay type: cell-based; details: Streptococcus pyogenes, Table 2
Procedure: as §1, §2

[14] = system: S. pyogenes 3262; assay type: cell-based; details: Streptococcus pyogenes, Table 2
Procedure: as §1, §2

[15] = system: S. pneumoniae 5032; assay type: cell-based; details: Streptococcus pneumoniae, Table 2
Procedure: as §1, §2

[16] = system: S. pyogenes 1721; assay type: cell-based; details: Streptococcus pyogenes, Table 2
Procedure: as §1, §2

[17] = system: S. pneumoniae 3773 (Erm B); assay type: cell-based, Streptococcus pneumoniae
Procedure: as §1, §2

[18] = Streptococcus pneumoniae, S. pneumoniae 303(ErmB), Table 1, read-out: MIC
[19] = Streptococcus pneumoniae, S. pneumoniae 163(MefA), Table 1, read-out: MIC
[20] = Streptococcus pneumoniae, ATCC49619, Table 1, read-out: MIC
[21] = Haemophilus influenzae, ATCC49247, H. influenzae ATCC 49247, Table 1, read-out: MIC
[22] = Streptococcus pneumoniae, S. pneumoniae ErmB 303, Table 2, read-out: MIC
[23] = Streptococcus pneumoniae, Table 2, read-out: MIC
[24] = Streptococcus pneumoniae, S. pneumoniae 163 (Mef A), Table 2, read-out: MIC
[25] = Streptococcus pneumoniae, ATCC49619, Table 2, read-out: MIC
[26] = Haemophilus influenzae, ATCC49247, H. influenzae ATCC 49247, Table 2, read-out: MIC

MIC [1]	MIC [2]	MIC [3]	MIC [4]	MIC [5]	MIC [6]	MIC [7, 18]	MIC [8, 19]	MIC [9, 20]	MIC [10, 21]	MIC [11]	MIC [12]	MIC [13]	MIC [14]	MIC [15]	MIC [16]	MIC [7, 22]	MIC [17, 23]	MIC [8, 24]	MIC [10, 26]	SMILES	also measured
8 µg/mL (≈ 10.7 µM)	> 64 µg/mL	4 µg/mL (≈ 5.34 µM)	1 µg/mL (≈ 1.34 µM)	1 µg/mL (≈ 1.34 µM)	8 µg/mL (≈ 10.7 µM)	0.5 µg/mL (≈ 0.668 µM)	≤ 0.125 µg/mL	≤ 0.125 µg/mL	2 µg/mL (≈ 2.67 µM)	4 µg/mL (≈ 5.34 µM)										CC[C@H]1OC(=O)[C@H](C)[C@@H](O[C@H]2C[C@@](C)(OC)[C@@H](O)[C@H](C)O2)[C@H](C)[C@@H](O[C@@H]2O[C@H](C)C[C@H](N(C)C)[C@H]2O)[C@](C)(O)C[C@@H](C)CN(C)[C@H](C)[C@@H](O)[C@]1(C)O [Azithromycin, reference compound]	
64 µg/mL (≈ 73.8 µM)	> 64 µg/mL	≤ 0.125 µg/mL	≤ 0.125 µg/mL	≤ 0.125 µg/mL	32 µg/mL (≈ 36.9 µM)	> 64 µg/mL	≤ 0.125 µg/mL	≤ 0.125 µg/mL	0.5 µg/mL (≈ 0.577 µM)	8 µg/mL (≈ 9.23 µM)										CC[C@H]1OC(=O)[C@H](C)C(=O)[C@H](C)[C@@H](OC2OC(C)CC(N(C)C)C2O)[C@@](C)(OC)C[C@@H](C)C(=O)[C@H](C)[C@H]2N(CCCCn3cc(Cn4nnc5ccccc54)nn3)C(=O)O[C@]12C (stereo partly drawn) [OP-1007, 11-N-[4-(4-Benzotriazol-1-ylmethyl-[1,2,3]triazol-1-yl)-butyl]-6-O-methyl-5-O-dasosaminyl-3-oxo-erythronolide A, 11,12-carbamate]	
											≤ 0.125 µg/mL	≤ 0.125 µg/mL	0.5 µg/mL (≈ 0.592 µM)	0.5 µg/mL (≈ 0.592 µM)	0.5 µg/mL (≈ 0.592 µM)	≤ 0.125 µg/mL	0.5 µg/mL (≈ 0.592 µM)	≤ 0.125 µg/mL	2 µg/mL (≈ 2.37 µM)	CC[C@H]1OC(=O)[C@@](C)(F)C(=O)[C@H](C)[C@@H](O[C@@H]2O[C@H](C)C[C@H](N(C)C)[C@H]2O)[C@](C)(OC)C[C@@H](C)C(=O)[C@H](C)[C@H]2N(CCCCn3cc(-c4cccc(N)c4)nn3)C(=O)O[C@]12C [OP-1068, 11-N-[4-[4-(3-aminophenyl)-[1,2,3]triazol-1-yl]-butyl]-5-desosaminyl-3-oxo-2-fluoro-erythronolide A, 11,12-cyclic carbamate]	MIC ([17]; Table 2): 1 µg/mL (≈ 1.18 µM); MIC [9, 25]: ≤ 0.125 µg/mL; MIC ([10]; H. influenzae ATCC 49247, Table 2): 4 µg/mL (≈ 4.73 µM)
> 64 µg/mL	> 64 µg/mL	≤ 0.125 µg/mL	≤ 0.125 µg/mL	0.25 µg/mL (≈ 0.283 µM)	> 64 µg/mL	> 64 µg/mL	0.5 µg/mL (≈ 0.566 µM)	≤ 0.125 µg/mL	2 µg/mL (≈ 2.26 µM)	> 64 µg/mL										CC[C@H]1OC(=O)[C@H](C)C(=O)[C@H](C)[C@@H](OC2OC(C)C(O)C(N(C)C)C2O)[C@@](C)(OC)C[C@@H](C)C(=O)[C@H](C)[C@H]2N(CCCCn3cc(Cn4nnc5ccccc54)nn3)C(=O)O[C@]12C (stereo partly drawn) [OP-1071, 11-N-[4-(4-Benzotriazol-1-ylmethyl-[1,2,3]triazol-1-yl)-butyl]-6-O-methyl-5-mycaminosyl-3-oxo-erythronolide A, 11,12-carbamate]	
> 64 µg/mL	> 64 µg/mL	4 µg/mL (≈ 4.53 µM)	32 µg/mL (≈ 36.3 µM)	4 µg/mL (≈ 4.53 µM)	> 64 µg/mL	0.25 µg/mL (≈ 0.283 µM)	≤ 0.125 µg/mL		> 64 µg/mL	> 64 µg/mL										CC[C@H]1OC(=O)[C@H](C)C(=O)[C@H](C)[C@@H](OC(=O)C2CN(C(=O)OC(C)(C)C)C(C)(C)O2)[C@@](C)(OC)C[C@@H](C)C(=O)[C@H](C)[C@H]2N(CCCCn3cnc(-c4cccnc4)c3)C(=O)O[C@]12C (stereo partly drawn) [OP-1086]	
											1 µg/mL (≈ 1.11 µM)	0.25 µg/mL (≈ 0.277 µM)	4 µg/mL (≈ 4.42 µM)	1 µg/mL (≈ 1.11 µM)	4 µg/mL (≈ 4.42 µM)	≤ 0.125 µg/mL	0.5 µg/mL (≈ 0.553 µM)	≤ 0.125 µg/mL	1 µg/mL (≈ 1.11 µM)	CC[C@H]1OC(=O)[C@@](C)(F)C(=O)[C@H](C)[C@@H](OC2OC(COC(C)=O)CC(N(C)C)C2O)[C@@](C)(OC)C[C@@H](C)C(=O)[C@H](C)[C@H]2N(CCCCn3cc(-c4cccc(N)n4)nn3)C(=O)O[C@]12C (stereo partly drawn) [OP-1356, 11-N-{4-[4-(6-Amino-pyridin-2-yl)-[1,2,3]triazol-1-yl]-butyl}-5-(3-dimethylamine-4-deoxy-6-O-acetyl-glucopyranosyl)-3-oxo-2-fluoro-erythronolide A,-11,12-cyclic carbamate]	MIC [9, 25]: ≤ 0.125 µg/mL
											1 µg/mL (≈ 1.18 µM)	0.25 µg/mL (≈ 0.296 µM)	1 µg/mL (≈ 1.18 µM)	1 µg/mL (≈ 1.18 µM)	2 µg/mL (≈ 2.36 µM)	≤ 0.125 µg/mL	1 µg/mL (≈ 1.18 µM)	≤ 0.125 µg/mL	4 µg/mL (≈ 4.73 µM)	CC[C@H]1OC(=O)[C@@](C)(F)C(=O)[C@H](C)[C@@H](OC2OC(C)CC(N(C)C)C2O)[C@@](C)(OC)C[C@@H](C)C(=O)[C@H](C)[C@H]2N(CCCCn3cc(-c4cccc(N)n4)nn3)C(=O)O[C@]12C (stereo partly drawn) [OP-1357, 11-N-{4-[4-(6-Amino-pyridin-2-yl)-[1,2,3]triazol-1-yl]-butyl}-5-desosaminyl-3-oxo-2-fluoro-erythronolide A,-11,12-cyclic carbamate]	MIC [9, 25]: ≤ 0.125 µg/mL
16 µg/mL (≈ 19.7 µM)	> 64 µg/mL	≤ 0.125 µg/mL	≤ 0.125 µg/mL	≤ 0.125 µg/mL	16 µg/mL (≈ 19.7 µM)	≤ 0.125 µg/mL	≤ 0.125 µg/mL	≤ 0.125 µg/mL	2 µg/mL (≈ 2.46 µM)	4 µg/mL (≈ 4.93 µM)	16 µg/mL (≈ 19.7 µM)	8 µg/mL (≈ 9.85 µM)	32 µg/mL (≈ 39.4 µM)	1 µg/mL (≈ 1.23 µM)	64 µg/mL (≈ 78.8 µM)		1 µg/mL (≈ 1.23 µM)		4 µg/mL (≈ 4.93 µM)	CC[C@H]1OC(=O)[C@H](C)C(=O)[C@H](C)[C@@H](O[C@@H]2O[C@H](C)C[C@H](N(C)C)[C@H]2O)[C@](C)(OC)C[C@@H](C)C(=O)[C@H](C)[C@H]2N(CCCCn3cnc(-c4cccnc4)c3)C(=O)O[C@]12C [Telithromycin, reference compound]	MIC ([7]; S. pneumoniae ErmB 303, Table 2): <=0.125 mcg/mL; MIC ([8]; S. pneumoniae 163 (Mef A), Table 2): <=0.125 mcg/mL; MIC ([9]; Table 2): <=0.125 mcg/mL
